Measurements as given in ChEMBL document CHEMBL1201862, “PubChem BioAssay data set” (2004).
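Exposure lasted 48 hours, with cells grown in 96-well plates and compounds tested at five concentrations. Here, GI50 denotes the concentration required for 50% inhibition of growth.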 Active and inactive are the calls of the source. No stated cut-off is given here; in the data, active = GI50 up to about 1.1 µM and inactive = higher.

Assays:
Experiment in all cases: NCI tumour cell line growth inhibition, 48 h
U-251 = tested on: U-251
PC-3 = tested on: PC-3
SK-MEL-28 = tested on: SK-MEL-28
SW-620 = tested on: SW-620
OVCAR-8 = tested on: OVCAR-8
SK-MEL-5 = tested on: SK-MEL-5
HOP-92 = tested on: HOP-92
COLO 205 = tested on: COLO 205
SNB-75 = tested on: SNB-75
HL-60 = tested on: HL-60
M14 = tested on: M14
HCC 2998 = tested on: HCC 2998
MDA-MB-435 = tested on: MDA-MB-435
HT-29 = tested on: HT-29
EKVX = tested on: EKVX
NCI/ADR-RES = tested on: NCI/ADR-RES
RXF 393 = tested on: RXF 393
NCI-H226 = tested on: NCI-H226
T47D = tested on: T47D
UACC-257 = tested on: UACC-257
HOP-62 = tested on: HOP-62
CAKI-1 = tested on: CAKI-1
NCI-H460 = tested on: NCI-H460
HCT-116 = tested on: HCT-116
A498 = tested on: A498
LOX IMVI = tested on: LOX IMVI
SN12C = tested on: SN12C
Malme-3M = tested on: Malme-3M
SF-539 = tested on: SF-539
NCI-H23 = tested on: NCI-H23
SK-OV-3 = tested on: SK-OV-3
SF-295 = tested on: SF-295
SF-268 = tested on: SF-268
DU-145 = tested on: DU-145
UACC-62 = tested on: UACC-62
IGROV-1 = tested on: IGROV-1
KM12 = tested on: KM12
MDA-N = tested on: MDA-N
MCF7 = tested on: MCF7
UO-31 = tested on: UO-31
Hs-578T = tested on: Hs-578T
OVCAR-3 = tested on: OVCAR-3
OVCAR-5 = tested on: OVCAR-5
MDA-MB-231 = tested on: MDA-MB-231
786-0 = tested on: 786-0
CCRF-CEM = tested on: CCRF-CEM
BT-549 = tested on: BT-549
RPMI-8226 = tested on: RPMI-8226
MOLT-4 = tested on: MOLT-4
K562 = tested on: K562
SNB-19 = tested on: SNB-19
OVCAR-4 = tested on: OVCAR-4
HCT-15 = tested on: HCT-15
SK-MEL-2 = tested on: SK-MEL-2
A549 = tested on: A549
TK-10 = tested on: TK-10
ACHN = tested on: ACHN
NCI-H522 = tested on: NCI-H522
SR = tested on: SR

## CCOC(=O)c1cc2c3c(c(C(C)=O)c(OC)c2[nH]1)N(C(=O)CC)CC3
U-251
  GI50: 19.2 µM (inactive)
PC-3
  GI50: 23.3 µM (inactive)
SK-MEL-28
  GI50: 15.3 µM (inactive)
SW-620
  GI50: 24.9 µM (inactive)
OVCAR-8
  GI50: 19.8 µM (inactive)
SK-MEL-5
  GI50: 10.9 µM (inactive)
HOP-92
  GI50: 13.5 µM (inactive)
COLO 205
  GI50: 18.2 µM (inactive)
SNB-75
  GI50: 20.7 µM (inactive)
HL-60
  GI50: 6.4 µM (inactive)
M14
  GI50: 16.8 µM (inactive)
HCC 2998
  GI50: 23.4 µM (inactive)
MDA-MB-435
  GI50: 15.6 µM (inactive)
HT-29
  GI50: 16.6 µM (inactive)
EKVX
  GI50: 11.4 µM (inactive)
NCI/ADR-RES
  GI50: 13.4 µM (inactive)
RXF 393
  GI50: 19.6 µM (inactive)
NCI-H226
  GI50: 10.2 µM (inactive)
T47D
  GI50: 4.93 µM (inactive)
UACC-257
  GI50: 19.4 µM (inactive)
HOP-62
  GI50: 25.1 µM (inactive)
CAKI-1
  GI50: 14.9 µM (inactive)
NCI-H460
  GI50: 16.7 µM (inactive)
HCT-116
  GI50: 14.4 µM (inactive)
A498
  GI50: 36.9 µM (inactive)
LOX IMVI
  GI50: 14.6 µM (inactive)
SN12C
  GI50: 20.9 µM (inactive)
Malme-3M
  GI50: 12.6 µM (inactive)
SF-539
  GI50: 19.8 µM (inactive)
NCI-H23
  GI50: 11.9 µM (inactive)
SK-OV-3
  GI50: 50.1 µM (inactive)
SF-295
  GI50: 19.3 µM (inactive)
SF-268
  GI50: 16.4 µM (inactive)
DU-145
  GI50: 15.6 µM (inactive)
UACC-62
  GI50: 16.3 µM (inactive)
IGROV-1
  GI50: 13.6 µM (inactive)
KM12
  GI50: 10.7 µM (inactive)
MDA-N
  GI50: 16.8 µM (inactive)
MCF7
  GI50: 14.5 µM (inactive)
UO-31
  GI50: 12.7 µM (inactive)
Hs-578T
  GI50: 19.4 µM (inactive)
OVCAR-3
  GI50: 14.5 µM (inactive)
OVCAR-5
  GI50: 27.7 µM (inactive)
MDA-MB-231
  GI50: 4.25 µM (inactive)
786-0
  GI50: 17.5 µM (inactive)
CCRF-CEM
  GI50: 13.7 µM (inactive)
BT-549
  GI50: 17.3 µM (inactive)
RPMI-8226
  GI50: 5.13 µM (inactive)
MOLT-4
  GI50: 4.05 µM (inactive)
K562
  GI50: 14.1 µM (inactive)
SNB-19
  GI50: 12.8 µM (inactive)
OVCAR-4
  GI50: 21.5 µM (inactive)
HCT-15
  GI50: 16.5 µM
SK-MEL-2
  GI50: 22.3 µM (inactive)
A549
  GI50: 14 µM (inactive)

## COC(=O)C1(C)CCC(c2ccc(C)cc2)=C(CC(=O)O)C1 (stereo not drawn)
U-251
  GI50: > 100 µM (inactive)
TK-10
  GI50: > 100 µM (inactive)
PC-3
  GI50: > 100 µM (inactive)
SK-MEL-28
  GI50: > 100 µM (inactive)
SW-620
  GI50: > 100 µM (inactive)
ACHN
  GI50: > 100 µM (inactive)
OVCAR-8
  GI50: > 100 µM (inactive)
SK-MEL-5
  GI50: > 100 µM (inactive)
HOP-92
  GI50: > 100 µM (inactive)
COLO 205
  GI50: > 100 µM (inactive)
SNB-75
  GI50: > 100 µM (inactive)
HL-60
  GI50: > 100 µM (inactive)
M14
  GI50: > 100 µM (inactive)
NCI-H522
  GI50: > 100 µM (inactive)
MDA-MB-435
  GI50: > 100 µM (inactive)
HT-29
  GI50: > 100 µM (inactive)
SR
  GI50: > 100 µM (inactive)
EKVX
  GI50: > 100 µM (inactive)
NCI/ADR-RES
  GI50: > 100 µM (inactive)
RXF 393
  GI50: > 100 µM (inactive)
T47D
  GI50: > 100 µM (inactive)
UACC-257
  GI50: > 100 µM (inactive)
HOP-62
  GI50: > 100 µM (inactive)
NCI-H460
  GI50: > 100 µM (inactive)
HCT-116
  GI50: > 100 µM (inactive)
A498
  GI50: > 100 µM (inactive)
LOX IMVI
  GI50: > 100 µM (inactive)
SN12C
  GI50: > 100 µM (inactive)
Malme-3M
  GI50: > 100 µM (inactive)
SF-539
  GI50: > 100 µM (inactive)
NCI-H23
  GI50: > 100 µM (inactive)
SK-OV-3
  GI50: > 100 µM (inactive)
SF-295
  GI50: > 100 µM (inactive)
SF-268
  GI50: > 100 µM (inactive)
DU-145
  GI50: > 100 µM (inactive)
UACC-62
  GI50: > 100 µM (inactive)
IGROV-1
  GI50: > 100 µM (inactive)
MDA-N
  GI50: > 100 µM (inactive)
MCF7
  GI50: > 100 µM (inactive)
Hs-578T
  GI50: > 100 µM (inactive)
OVCAR-3
  GI50: > 100 µM (inactive)
OVCAR-5
  GI50: > 100 µM (inactive)
MDA-MB-231
  GI50: > 100 µM (inactive)
786-0
  GI50: > 100 µM (inactive)
BT-549
  GI50: > 100 µM (inactive)
RPMI-8226
  GI50: > 100 µM (inactive)
MOLT-4
  GI50: > 100 µM (inactive)
K562
  GI50: > 100 µM (inactive)
SNB-19
  GI50: > 100 µM (inactive)
OVCAR-4
  GI50: > 100 µM (inactive)
HCT-15
  GI50: > 100 µM
SK-MEL-2
  GI50: > 100 µM (inactive)
A549
  GI50: > 100 µM (inactive)
